Experimental findings from a melting point compilation (Tetko et al.; mined from patent text by program, amines drawn as free bases though some values may be those of a salt) are described below.

The melting point is the temperature, or range, at which the solid turns liquid.

The compound `CS(=O)(=O)Nc1ccc(CCc2n[nH]c3c2c(=O)n(-c2ccccc2)c2ncccc32)cc1` displayed a melting point of 284 to 285 °C.

For the compound `CCc1ccc(-c2nc3ccccc3[nH]2)cc1`, the melting point was 258 °C.

`O=S(=O)(NCc1ccncc1)c1ccc(I)cc1` had a melting point of 174 to 176 °C.

Compound `COc1ccc(CCNC(=S)Nc2nc3ccccc3[nH]2)cc1` showed a melting point of 166 to 172 °C.

With `CC(=O)NC1(c2ccc(C(C)N3CCN(c4ccc(F)cc4)CC3)cc2)CC1` (stereo not drawn), the melting point is 149 to 150 °C.

`Fc1cc2c(c(-c3c(Cl)cccc3Cl)c1)OC(CN1CCCC1)C2` (stereo not drawn) yielded a melting point of 65 to 67 °C.

In turn, `COc1ccc(C(=O)Nc2cc(C)cc(C)c2)cc1NC(=S)Nc1cccc(C)c1` displayed a melting point of 188 to 189 °C.

With `COc1csc(C(=O)C2C(=O)N(C(N)=O)c3ccc(Cl)cc32)c1` (stereo not drawn), the melting point was 221 to 223 °C.

The compound `Cn1nc(-c2c(F)cccc2Cl)nc1C(=O)c1ccc(Cl)cc1` came in with a melting point of 108 to 111 °C.

The compound `C=C1OC(=NOC(C)=O)C(c2ccccc2)C(=O)N1C(C)(C)C(=O)Nc1cc(Cl)cc(Cl)c1` (stereo not drawn) showed a melting point of 125 to 127 °C.

In the case of `CS(=O)(=O)c1ccc2c(c1)[nH]c(=S)n2NC(=O)c1ccc(Cl)c(S(N)(=O)=O)c1`, the melting point lay in the range of 298 to 300 °C.

Compound `BrCCCc1ccc(C=Cc2cc3ccccc3s2)s1` gave a melting point of 109 to 111 °C.

Turning to `CC(=O)NC1CCN(c2ncc3ncnc(Nc4ccc(F)c(Cl)c4)c3n2)CC1`, the melting point was 263 to 265 °C.

With `CC(C)(C)c1cc2c(c(C(C)(C)C)c1)O[PH](=O)Oc1c(cc(C(C)(C)C)cc1C(C)(C)C)C2`, the melting point stood at 164 °C.

Turning to `COc1ccnc(CSc2nc3cc(Cl)c(Cl)cc3[nH]2)c1C`, the melting point was in the range of 254 to 256 °C.

For the compound `O=C1C=C(O)CC(CCc2ccc(O)cc2)(C2CCCCC2)O1` (stereo not drawn), the melting point was in the range of 52 to 58 °C.

Compound `FC(F)(F)c1ccc(-c2nnc(-c3cccc(C4OCCO4)c3)o2)cc1` showed a melting point of 107 to 108 °C.

Regarding `CC=CC(=O)Nc1c(C(O)(C(F)(F)F)C(F)(F)F)ccc2ccccc12`, the melting point is 216 to 217 °C.

With `CC1C(=O)NC(c2ccc(NC(=O)CCl)cc2)c2ccccc21` (stereo not drawn), the melting point lay within 238 to 239 °C.

In turn, `CCC1(O)CCC2(C)C(CCC3C4CCC(C5(C)OCCO5)C4(C)CC(=O)C32)C1` (stereo not drawn) displayed a melting point of 144 °C.

For the compound `O=C1C(CCO)Oc2cc(F)ccc2N1Cc1cccc(F)c1` (stereo not drawn), the melting point is 78 to 79 °C.

On to `Clc1cccc2cc3cccc(Cl)c3cc12`, for which the melting point amounted to 155 °C.

In turn, `COc1cccc(Sc2c3c(=O)n(C)c(=O)n(CC(C)C)c3cn2Cc2cccc3ccccc23)c1` showed a melting point of 130 to 133 °C.

For the compound `COc1ccc(C(=O)CBr)c2c1OCCO2`, the melting point worked out at 67 °C.

The compound `CCC(=O)NC1C=CC(CO)C1` (stereo not drawn) came in with a melting point of 67 to 68 °C.

The compound `CCSc1cc(C)nc(SCC)c1NC(=O)CCCCCCCSc1nc2c(C)c(Cl)cc(C(C)C)c2o1` came in with a melting point of 82 to 84 °C.

In turn, `COc1ccc(-c2coc3ccc(C(=O)NN)cc23)cc1` showed a melting point of 184 to 185 °C.

In the case of `CSc1cc(C(=O)O)cc(C(F)(F)F)c1`, the melting point fell in the range of 135 to 140 °C.

Turning to `C1=C(c2c[nH]c3ccccc23)CCN(CC2COc3ccc4occc4c3O2)C1` (stereo not drawn), the melting point was 208 to 209 °C.

In turn, `COC(=O)CC(C#N)c1ccc(OC)c(OC2CCCC2)c1` (stereo not drawn) came in with a melting point of 69 to 71 °C.

The compound `O=P(O)(O)C(O)(Cc1cccc(Cl)c1)P(=O)(O)O` displayed a melting point of 198 to 200 °C.

`COc1cc2ncnc(N3CCN(C(=O)NCc4ccsc4)CC3)c2cc1OC` showed a melting point of 178 to 179 °C.

Compound `CN1Cc2cscc2Nc2cc(Cl)c(Cl)cc21` displayed a melting point of 92 to 93 °C.

For the compound `CCn1cc(-c2c(-c3ccc(F)cc3)nn3ccncc23)ccc1=O`, the melting point is 165 to 166 °C.

`COc1cc(CO)c(-c2ccc(OCCC(C)CCCC(C)C)cc2)cc1CO` (stereo not drawn) registered a melting point of 101 °C.

For the compound `c1ccc2[nH]c(SSCCSSc3nc4ccccc4[nH]3)nc2c1`, the melting point lay in the range of 190 to 192 °C.

For the compound `CONC(=O)c1nsc2ccc(-n3c(=O)cc(C(F)(F)F)n(C)c3=O)cc12`, the melting point lay in the range of 125 to 127 °C.

Regarding `COC(=O)c1cnn2c(C(F)(F)F)cc(Cl)nc12`, the melting point fell in the range of 126 to 127 °C.

In turn, `CC(C)CC(=O)OCC(COC(=O)CC(C)C)OCn1cnc2c(=O)[nH]c(N)nc21` came in with a melting point of 215 to 217 °C.

Consider `COc1cc(C=Nc2cc(Cl)c(N=CN(C)C)c(Cl)c2)cc(OC)c1`, for which the melting point was 133 to 135 °C.

In turn, `COc1ccc(CC(C)NCC(O)c2ccccc2Cl)cc1OC` (stereo not drawn) showed a melting point of 113 to 114 °C.

On to `C=Cn1cc(C(N)=O)c([N+](=O)[O-])n1`, for which the melting point lay within 150 to 152 °C.

In the case of `CC(C)c1nc(-c2ccccc2)nc(-c2ccc(F)cc2)c1C=C(Br)Br`, the melting point was 95 to 98 °C.

The compound `CCn1c(C(O)(c2ccccc2)c2ccccc2)nc(-c2ccncc2)c1-c1ccc(Cl)cc1` had a melting point of 222 to 223 °C.

Take `COC(=O)c1c(C(=O)O)nc2cc(Cl)ccc2c1O`: the melting point came out at 215 °C.

In the case of `O=C1CN2CCOC2(c2ccccc2F)c2cc(Cl)ccc2N1` (stereo not drawn), the melting point was in the range of 183 to 184 °C.

On to `O=C(O)C1=Cc2cc(Cl)c(Oc3ccc(Cl)c(F)c3)cc2OC1C(F)(F)F` (stereo not drawn), for which the melting point was found to be 207 °C.

In turn, `COc1cccc(Sc2c(O)c3c(Cl)cc(Cl)cc3[nH]c2=O)c1` displayed a melting point of 269 to 270 °C.

On to `CC(=O)NC(=O)C(=O)c1ccccc1`, for which the melting point was in the range of 124 to 125 °C.

Consider `O=C(CCl)N1CC=C(c2cccc(C(F)(F)F)c2)n2ncc(Cl)c21`, for which the melting point was in the range of 116 to 119 °C.

For the compound `S=C=Nc1ccc2sc(-c3cccnc3)nc2c1`, the melting point was 160 to 162 °C.

The compound `CCOC(=O)Cc1c(C)n(Cc2cccc(OC)c2)c2ccc(OC)cc12` registered a melting point of 88 to 90 °C.

Take `O=C(O)Cc1ccc(OCCNC(=O)C2Cc3ccccc3N2S(=O)(=O)c2ccc(-c3ccc(F)cc3)cc2)c(Cl)c1` (stereo not drawn): the melting point was 102 to 110 °C.

Compound `CCOC(=O)c1ccc(/C=C(\C)c2ccc3c(c2)CCC(C)(C)CS3)cc1` yielded a melting point of 96 to 97 °C.

Regarding `COc1ccccc1C1C2CCC(C2)C12CCC(=O)N2` (stereo not drawn), the melting point was determined as 260 °C.

`CCCc1c(OCCCC(=O)NCCc2cccnc2)ccc(C(C)=O)c1O` returned a melting point of 94 to 96 °C.

In turn, `COCCOc1ccc(CCC(=O)NS(=O)(=O)c2ccc(OC)cc2)c(Oc2ncc(C(F)(F)F)cc2Cl)c1` returned a melting point of 118 to 120 °C.

Compound `COc1ccc(C(C#N)Cc2cc(OC)c(OC)c(OC)c2)cc1` (stereo not drawn) yielded a melting point of 102 to 103 °C.

`O=C(NCC12CC3CC(CC(C3)C1)C2)c1cc(OCCO)ncc1Cl` yielded a melting point of 154 to 155 °C.

`Cc1ccccc1C(CCC(=O)O)Oc1cc(OCc2ccsc2)ccc1-c1ncco1` (racemic) yielded a melting point of 112 to 114 °C.

`COc1ccc(S(=O)(=O)c2cc(O)c(O)cc2C)cc1NC(C)=O` showed a melting point of 230 to 232 °C.

In turn, `C=C(C(=O)O)c1ccc2cc(OC)ccc2c1` had a melting point of 175 °C.

For the compound `COc1cccc(-c2nc(-c3ccccc3C=O)n[nH]2)c1`, the melting point fell in the range of 163 to 165 °C.

`CC(=O)Oc1ccccc1NC(=O)CBr` yielded a melting point of 79 to 82 °C.

Take `COC(=O)c1cccc2[nH]c(Sc3cccc4c(=O)cc[nH]c34)nc12`: the melting point was over 250 °C.

As to `CC(C)(C)c1cc(CSCN(O)CSCc2cc(C(C)(C)C)c(O)c(C(C)(C)C)c2)cc(C(C)(C)C)c1O`, the melting point lay within 98 to 101 °C.

As to `CCOC(=O)C(=NO)c1ccccc1[N+](=O)[O-]`, the melting point was in the range of 167 to 168 °C.

With `O=C1C(=O)c2c(nc3ccc(Cl)cn23)-c2cccc(Cl)c21`, the melting point was over 260 °C.

For `Cc1c(-c2ccc(=O)n(C)c2)cccc1[N+](=O)[O-]`, the melting point fell in the range of 157 to 159 °C.

Compound `Cc1[nH]c(-c2nc3ccc(C(=O)c4ccccc4)cc3[nH]2)c(C)c1C(=O)O` had a melting point of over 300 °C.

In the case of `CCOC(=O)C(NC(C)=O)C(=O)CCCCc1ccccc1` (stereo not drawn), the melting point was 54 to 55 °C.

`CCn1ncc2c(Cl)c3ccc(OC)cc3nc21` showed a melting point of 95 to 98 °C.

`COc1ccc(S(=O)(=O)N(CCn2ccnc2)c2ccc(Cl)cc2Cc2c(F)cccc2F)cc1OC` gave a melting point of 160 °C.

With `CS(=O)(=O)c1ccc(-c2c(OCC(=O)c3ccc(F)cc3)nn(CC(=O)c3ccc(F)cc3)c2-c2ccc(F)cc2)cc1`, the melting point lay in the range of 191 to 193 °C.

The compound `CCOC(=O)C(=O)c1cc(F)cc2cccnc12` yielded a melting point of 114 to 117 °C.

On to `CN1CCN(Cc2ccc3c(=O)n(CCCCN4CC=C(c5ccccc5)CC4)c(=O)[nH]c3c2)CC1`, for which the melting point was in the range of 167 to 168 °C.

In the case of `COC(=O)NN[C@@H]1c2cc(C#N)ccc2OC(C)(C)[C@H]1O` (relative stereo), the melting point was in the range of 174 to 175 °C.

`COC(=O)Nc1nc(-c2ccccc2)c(-c2nc3ccccc3c(=O)n2-c2ccc(OC)cc2)s1` came in with a melting point of 272 to 274 °C.

Compound `O=C(Nc1ccc(-n2nc(C(F)(F)F)cc2C(F)(F)F)cn1)c1ccccc1F` returned a melting point of 153 to 155 °C.

The compound `CCOC(=O)c1cn(NC)c2cc3c(cc2c1=O)OCO3` displayed a melting point of 211 to 218 °C.

For `CO[C@]1(c2cc(F)cc(OCc3ccc4c(ccc(=O)n4C)c3)c2)CCO[C@@H](C)C1`, the melting point lay within 91 to 93 °C.

For the compound `COC(=O)c1nc(-c2ccc([Si](C)(C)C)c(F)c2F)c(F)c(N)c1OC`, the melting point lay in the range of 123 to 125 °C.

Take `COC(=O)CCCCCOc1ccc(NC(=O)CCCCCOCc2ccccc2)cc1`: the melting point was 64 to 65.6 °C.

In turn, `COc1ccc2c(c1)c(=O)[nH]c1c2c2ccccc2n1C` gave a melting point of 250 °C.

The compound `CN1C(=O)CCc2cc(S(=O)(=O)Cl)ccc21` came in with a melting point of 130 °C.

Consider `COc1cc(OC)c(-c2cccs2)cc1/C=C/C(=O)c1ccc(S(=O)(=O)Nc2ccon2)cc1`, for which the melting point fell in the range of 198 to 199 °C.

`CN(Cc1cnc(Cl)s1)C(=N)N[N+](=O)[O-]` returned a melting point of 116 to 117 °C.

Turning to `O=C(O)COc1ccc(C(=NO)c2cccs2)c2ccccc12`, the melting point was determined as 215 °C.
